Laboratory results published in patent EP0341104B1, “Substituted flavonoid compounds, their salts, their manufacture and medicines containing these materials” (MERCK PATENT GmbH, priority 1988, dated 1989).

How the values were obtained:
[1] = tested on: murine renal cancer; details: Wiltrout et al, J. Immunol. 1988; cited from earlier work
[2] = tested on: ristocetin-induced platelet agglutination; details: Rubin et al, Lancet 1987; cited from earlier work
[3] = in vivo; details: mouse, 400 mg/kg
[4] = tested on: natural killer cell activity; details: Wiltrout et al, J. Immunol. 1988; cited from earlier work
[5] = tested on: interferon (IFN); type: in vivo, Mice BALB/C; details: 200 mg/kg intravenously; unit = quantity of IFN in 1 ml of sample reducing viral lysis by 50%; HBSS controls no induction
[6] = tested on: tumored cells of the type YAC-1; assay: stimulation of the activity of killer cells (splenic cells of treated mice, chromium 51 release); type: in vivo, Mice BALB/C; details: 200 mg/kg intravenously; spleens taken 24 hours after administration; 4 hours incubation with 1 x 10⁴ YAC-1 cells; HBSS controls no measurable activity
Protocol: The determination of the activity of killer cells was made in accordance with the following. Mice BALB/C were treated intraveneously, either with 0.25 ml of HBSS or with 200 mg/kg of a compound of formula (IV). Twenty four hours after administration of the compound, the spleens of the animals were reduced to a state of suspension. Debris and cellular wastes are eliminated by sedimentation and the red corpuscles are lysed with distilled water. The cellular suspension obtained was then filtered over sterile gauze and washed twice with HBSS.
Different quantities of splenic cells are incubated with 1 x 10⁴ tumored cells of the type YAC-1 stained with chromium 51. The length of incubation was 4 hours at 37°C in a RPMI 1640-type medium supplemented with 5% of FBS, pencillin (100 U/ml) streptomycin (100 µg/ml), L-glutamine (20 mM), sodium pyruvate (1 mM), and nonessential amino acids (0.1 mM) in a buffered medium. The floating bodies are removed and a count effectuated.
The results are expressed in lytic units (UL₁₀): where UL₁₀ is the quantity necessary to effectuate lysis of 1 x 10⁴ target cells. For example, it was discovered that the compound of formula 19, provided 80 UL. The compound of formula 25 provided 60 UL. The compound of formula 42 provided 110 UL.

[7] = after 20 days

Row | SMILES | Interferon activity [5] | activity of killer cells in lytic units (UL₁₀) [6] [UL] | also measured
1 | O=C(O)Cc1cccc2c(=O)cc(-c3ccccc3)oc12 [flavone-8-acetic acid] |  |  | synergy with interleukin-2 (IL-2) for treatment of murine renal cancer [1]: synergizes with interleukin-2 (IL-2); ristocetin-induced platelet agglutination [2]: inhibits; mortality at 480 h [3]: 100%; systemic natural killer cell activity [4]: augments
2 | O=C(O)Cc1cccc2c(=O)cc(-c3ccc(-c4ccccc4)cc3)oc12 [formula 19, PHENYL-4-PHENYL)2-OXO-4-4H-(1)-BENZOPYRAN-8-ACETIC ACID] | 1000 units of IFN | 80 | 
3 | O=C(O)Cc1cccc2c(=O)cc(-c3ccc([N+](=O)[O-])cc3)oc12 [formula 25, (NITRO-4-PHENYL)-2-OXO-4-4H-(1)-BENZOPYRAN-8-ACETIC ACID] | 1000 units of IFN | 60 | 
4 | O=C(O)Cc1ccc2c(=O)cc(-c3ccccc3)oc2c1 [formula 29, OXO-4-PHENYL-2-4H-(1) BENZOPYRAN-7-ACETIC ACID] |  |  | mortality at 480 h [3]: 10%
5 | C=C(C(=O)O)c1cccc2c(=O)cc(-c3ccccc3)oc12 [formula 42, (PHENYL-2-OXO-4-4H-(1) BENZOPYRAN-8-YL)-2-ACRYLIC ACID] |  | 110 | 
6 | Nc1nc(-c2cccc3c(=O)cc(-c4ccccc4)oc23)cs1 [formula 58, (AMINO-2-THIAZOL-4-YL)-8-PHENYL-2-4H-[1] BENZOPYRANONE-4] |  |  | mortality rate [7]: no deaths
7 | O=C(O)c1cccc2ccc3c(=O)cc(-c4ccccc4)oc3c12 [formula 67, OXO-4-PHENYL-2-4H-NAPHTO[1,2-b]PYRANONE-4] | 1000 units of IFN |  | 
